Source: PubChem BioAssay AID330 (DTP/NCI, 2004)
Inconclusive results and toxic doses are left out. How the source made its calls: active means survival T/C of 150% or more; inactive means T/C below 125% in these data. Peptide text beside a SMILES is read from it. * marks the point of attachment. Boc = CC(C)(C)OC(=O)*; OtBu = CC(C)(C)O*; NHNH2 = NN*

Test system: P388 leukemia ip, CD2F1 mice, survival T/C
Test: NCI In Vivo Anticancer Drug Screen. Data for tumor model P388 Leukemia (intraperitoneal) in CD2F1 (CDF1) mice
Conditions: endpoint: median survival time, higher = longer survival
Procedure, shortened: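 Mice carrying the transplanted tumor received test compound or vehicle. Survival was recorded in each group, and the value is the treated-group measurement divided by that of the vehicle-treated control group.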

[1] = dose: 3.75 mg/kg/injection, schedule: Q01DX005 (ip), vehicle: Klucel (hydroxypropylcellulose) (HPC)
[2] = dose: 60.0 mg/kg/injection, schedule: Q01DX005 (ip), vehicle: Klucel (hydroxypropylcellulose) (HPC)
[3] = dose: 50.0 mg/kg/injection, schedule: Q01DX009 (ip), vehicle: Klucel (hydroxypropylcellulose) (HPC)
[4] = dose: 100.0 mg/kg/injection, schedule: Q01DX009 (ip), vehicle: Klucel (hydroxypropylcellulose) (HPC)
[5] = dose: 200.0 mg/kg/injection, schedule: Q01DX009 (ip), vehicle: Klucel (hydroxypropylcellulose) (HPC)
[6] = dose: 60.0 mg/kg/injection, schedule: Q01DX005 (ip), vehicle: saline with Tween-80
[7] = dose: 120.0 mg/kg/injection, schedule: Q01DX005 (ip), vehicle: saline with Tween-80
[8] = dose: 240.0 mg/kg/injection, schedule: Q01DX005 (ip), vehicle: saline with Tween-80
[9] = dose: 50.0 mg/kg/injection, schedule: Q01DX009 (ip), vehicle: saline with Tween-80
[10] = dose: 100.0 mg/kg/injection, schedule: Q01DX009 (ip), vehicle: saline with Tween-80
[11] = dose: 200.0 mg/kg/injection, schedule: Q01DX009 (ip), vehicle: saline with Tween-80
[12] = dose: 25.0 mg/kg/injection, schedule: Q01DX005 (ip), vehicle: saline with Tween-80
[13] = dose: 50.0 mg/kg/injection, schedule: Q01DX005 (ip), vehicle: saline with Tween-80
[14] = dose: 100.0 mg/kg/injection, schedule: Q01DX005 (ip), vehicle: saline with Tween-80
[15] = dose: 200.0 mg/kg/injection, schedule: Q01DX005 (ip), vehicle: saline with Tween-80

Measured: T/C

C=C(C)[C@H]1O[C@H]2CC[C@@]3(C)[C@@](O)(CC[C@H]4[C@@H]5OC(C)(C)[C@H]6C[C@@H]7C(=C)Cc8c(Cl)cc9[nH]c(c5c9c8C76O)[C@@]43C)[C@@]23O[C@H]3[C@H]1O (stereo not given in full)
inactive: dose: 0.5 mg/kg/injection, schedule: Q01DX005 (ip), vehicle: Klucel (hydroxypropylcellulose) (HPC) 101 % of control | dose: 1.0 mg/kg/injection, schedule: Q01DX005 (ip), vehicle: Klucel (hydroxypropylcellulose) (HPC) 97 % of control | dose: 2.0 mg/kg/injection, schedule: Q01DX005 (ip), vehicle: Klucel (hydroxypropylcellulose) (HPC) 87 % of control | [1] 107 % of control | dose: 4.0 mg/kg/injection, schedule: Q01DX005 (ip), vehicle: Klucel (hydroxypropylcellulose) (HPC) 93 % of control | dose: 7.5 mg/kg/injection, schedule: Q01DX005 (ip), vehicle: Klucel (hydroxypropylcellulose) (HPC) 115 % of control | dose: 15.0 mg/kg/injection, schedule: Q01DX005 (ip), vehicle: Klucel (hydroxypropylcellulose) (HPC) 106 % of control | dose: 30.0 mg/kg/injection, schedule: Q01DX005 (ip), vehicle: Klucel (hydroxypropylcellulose) (HPC) 107 % of control | [2] 107 % of control

CCC(C)C(NC(=O)CNC(=O)OC(C)(C)C)C(=O)NC(C(=O)NC(CCC(=O)OC(C)(C)C)C(=O)NN)C(C)C (stereo not given) (Boc-GIVE(OtBu)-NHNH2; configuration not given here)
inactive: dose: 6.25 mg/kg/injection, schedule: Q01DX001 (ip), vehicle: saline with Tween-80 100 % of control | dose: 12.5 mg/kg/injection, schedule: Q01DX001 (ip), vehicle: saline with Tween-80 100 % of control | dose: 25.0 mg/kg/injection, schedule: Q01DX001 (ip), vehicle: saline with Tween-80 95 % of control

CCCCCCCC/C=C/CCCCCCCC(=O)OCC(=O)OCC
inactive: [3] 102 % of control | [4] 93 % of control | [5] 104 % of control

COC1=C(O)C(=O)N(C)C(=O)C1
inactive: dose: 0.93 mg/kg/injection, schedule: Q01DX005 (ip), vehicle: saline 104 % of control | dose: 1.87 mg/kg/injection, schedule: Q01DX005 (ip), vehicle: saline 101 % of control | [1] 110 % of control | dose: 3.75 mg/kg/injection, schedule: Q01DX005 (ip), vehicle: saline 104 % of control

CC1(/C=C/Cl)CC(Cl)(CBr)C(Cl)CC1Cl (stereo not given)
inactive: dose: 8.75 mg/kg/injection, schedule: Q01DX005 (ip), vehicle: Klucel (hydroxypropylcellulose) (HPC) 97 % of control | dose: 17.5 mg/kg/injection, schedule: Q01DX005 (ip), vehicle: Klucel (hydroxypropylcellulose) (HPC) 91 % of control | dose: 35.0 mg/kg/injection, schedule: Q01DX005 (ip), vehicle: Klucel (hydroxypropylcellulose) (HPC) 97 % of control | dose: 70.0 mg/kg/injection, schedule: Q01DX005 (ip), vehicle: Klucel (hydroxypropylcellulose) (HPC) 91 % of control

Cc1csc2n/c(=N/[N+](=O)[O-])sn12
inactive: [6] 92 % of control | [7] 103 % of control | [8] 120 % of control

COc1ccc(C2OC3=C(Nc4ccc([N+](=O)[O-])cc4N3)C2=O)cc1OC (stereo not given)
inactive: [2] 89 % of control | dose: 120.0 mg/kg/injection, schedule: Q01DX005 (ip), vehicle: Klucel (hydroxypropylcellulose) (HPC) 93 % of control | dose: 240.0 mg/kg/injection, schedule: Q01DX005 (ip), vehicle: Klucel (hydroxypropylcellulose) (HPC) 89 % of control

CC1OC(OC2C(Oc3cc(O)c4c(=O)cc(-c5ccc(OC6OC(CO)C(O)C(O)C6OC6OC(C)C(O)C(O)C6O)c(O)c5)oc4c3)OC(CO)C(O)C2O)C(O)C(O)C1O (stereo not given)
inactive: dose: 3.0 mg/kg/injection, schedule: Q01DX009 (ip), vehicle: Klucel (hydroxypropylcellulose) (HPC) 106 % of control | dose: 6.0 mg/kg/injection, schedule: Q01DX009 (ip), vehicle: Klucel (hydroxypropylcellulose) (HPC) 95 % of control | dose: 12.0 mg/kg/injection, schedule: Q01DX009 (ip), vehicle: Klucel (hydroxypropylcellulose) (HPC) 93 % of control | dose: 24.0 mg/kg/injection, schedule: Q01DX009 (ip), vehicle: Klucel (hydroxypropylcellulose) (HPC) 95 % of control

CC1SC(=O)NN=C1c1ccccc1 (stereo not given)
inactive: [9] 94 % of control | [10] 97 % of control | [11] 106 % of control

C=C(C)C1(C)CC1c1ccncc1 (stereo not given)
inactive: [12] 102 % of control | [13] 103 % of control | [14] 94 % of control

Cc1ccccc1Nc1ccnc2c1ccc1ccccc12
inactive: [13] 88 % of control | [14] 92 % of control | [15] 88 % of control

C[CH](C)[Ge]([CH3])([CH](C)C)[CH](C)C
inactive: dose: 50.0 mg/kg/injection, schedule: Q01DX009 (ip), vehicle: saline 100 % of control | dose: 100.0 mg/kg/injection, schedule: Q01DX009 (ip), vehicle: saline 93 % of control | dose: 200.0 mg/kg/injection, schedule: Q01DX009 (ip), vehicle: saline 110 % of control

Cc1ccc2c(C(=O)O)cc(-c3ccc4c(c3)OCO4)nc2c1
inactive: [3] 98 % of control | [4] 98 % of control | [5] 106 % of control

O=C(NO)Nc1cc(Cl)cc(Cl)c1
inactive: [6] 114 % of control | [7] 114 % of control

O=Cc1ccc(N2OC(c3ccc([N+](=O)[O-])cc3)C(c3ccc([N+](=O)[O-])cc3)C2c2ccc([N+](=O)[O-])cc2)cc1 (stereo not given)
inactive: dose: 50.0 mg/kg/injection, schedule: Q01DX009 (ip), vehicle: acetone 96 % of control | dose: 100.0 mg/kg/injection, schedule: Q01DX009 (ip), vehicle: acetone 93 % of control | dose: 200.0 mg/kg/injection, schedule: Q01DX009 (ip), vehicle: acetone 100 % of control

CP1(=S)C=C(N2CCOCC2)CC1 (stereo not given)
inactive: [3] 100 % of control | [4] 100 % of control | [5] 86 % of control

COc1cc2ccnc(-c3nccc4cc(OC)c(OC)cc34)c2cc1OC
inactive: dose: 100.0 mg/kg/injection, schedule: Q01DX001 (ip), vehicle: saline with Tween-80 97 % of control | dose: 200.0 mg/kg/injection, schedule: Q01DX001 (ip), vehicle: saline with Tween-80 92 % of control | dose: 400.0 mg/kg/injection, schedule: Q01DX001 (ip), vehicle: saline with Tween-80 97 % of control

C[C@]12CC[C@H]3[C@@H](CCC4=CC(=O)CC[C@@]43C)[C@@H]1CC[C@@H]2C(=O)C=O
inactive: [3] 109 % of control | [4] 106 % of control | [5] 103 % of control

Cn1cc(CCC(=O)C2C=CC=CC2=NC(=O)CCCl)c2ccccc21 (stereo not given)
inactive: [6] 107 % of control | [7] 101 % of control | [8] 94 % of control

C1=Nc2ccccc2Oc2ccc3ccccc3c21
inactive: [9] 107 % of control | [10] 99 % of control | [11] 107 % of control

CCc1nc(N)nc(N)c1-c1ccc([N+](C)(C)C)cc1
inactive: dose: 6.25 mg/kg/injection, schedule: Q01DX005 (ip), vehicle: Klucel (hydroxypropylcellulose) (HPC) 101 % of control | dose: 12.5 mg/kg/injection, schedule: Q01DX005 (ip), vehicle: Klucel (hydroxypropylcellulose) (HPC) 101 % of control | dose: 25.0 mg/kg/injection, schedule: Q01DX005 (ip), vehicle: Klucel (hydroxypropylcellulose) (HPC) 103 % of control

CCB1OC2C(COC(C)=O)OC(OC(C)=O)C2O1 (stereo not given)
inactive: [13] 101 % of control | [14] 110 % of control | [15] 113 % of control

CC(=O)Nc1ccc(C(=O)C=O)cc1
inactive: [10] 119 % of control

N#Cc1c(-c2ccc(Cl)c(Cl)c2)c(-c2ccc(Cl)c(Cl)c2)nn(CCO)c1=O
inactive: dose: 25.0 mg/kg/injection, schedule: Q04DX002 (ip), vehicle: distilled water + Tween-80 95 % of control | dose: 50.0 mg/kg/injection, schedule: Q04DX002 (ip), vehicle: distilled water + Tween-80 93 % of control | dose: 100.0 mg/kg/injection, schedule: Q04DX002 (ip), vehicle: distilled water + Tween-80 93 % of control | dose: 200.0 mg/kg/injection, schedule: Q04DX002 (ip), vehicle: distilled water + Tween-80 87 % of control

O=C(c1ccccc1)C(Cl)C(Cl)c1ccccc1 (stereo not given)
inactive: [12] 102 % of control | [13] 105 % of control | [14] 101 % of control | [15] 100 % of control

O=[N+]([O-])c1cccnc1C1OCCO1
inactive: dose: 50.0 mg/kg/injection, schedule: Q01DX009 (ip), vehicle: saline + Tween-80 + alcohol 102 % of control | dose: 100.0 mg/kg/injection, schedule: Q01DX009 (ip), vehicle: saline + Tween-80 + alcohol 99 % of control

NC(CCCCCCC(N)C(=O)c1ccccc1)C(=O)c1ccccc1 (stereo not given)
inactive: [6] 98 % of control | [7] 98 % of control | [8] 91 % of control

Cc1[nH]c(=O)nc(CCc2ccccc2)c1-c1ccccc1
inactive: [6] 93 % of control | [7] 87 % of control
